Measurements taken from ChEMBL document CHEMBL1921729, “A small nonrule of 3 compatible fragment library provides high hit rate of endothiapepsin crystal structures with various fragment chemotypes” (J Med Chem, 2011).

Legend:
[1] = Solubility of the compound in aqueous buffer at pH 7.4 by UV spectrophotometry; type: physicochemical
[2] = molecular target: T1, Endothiapepsin (Cryphonectria parasitica) (UniProt P11838); assay: Inhibition of Cryphonectria parasitica endothiapepsin using Abz-Thr-Ile-Nle-p-nitro-Phe-Gln-Arg-NH2 as substrate at 1 mM by fluorescence spectrophotometry analysis
T1 sequence (whole entry): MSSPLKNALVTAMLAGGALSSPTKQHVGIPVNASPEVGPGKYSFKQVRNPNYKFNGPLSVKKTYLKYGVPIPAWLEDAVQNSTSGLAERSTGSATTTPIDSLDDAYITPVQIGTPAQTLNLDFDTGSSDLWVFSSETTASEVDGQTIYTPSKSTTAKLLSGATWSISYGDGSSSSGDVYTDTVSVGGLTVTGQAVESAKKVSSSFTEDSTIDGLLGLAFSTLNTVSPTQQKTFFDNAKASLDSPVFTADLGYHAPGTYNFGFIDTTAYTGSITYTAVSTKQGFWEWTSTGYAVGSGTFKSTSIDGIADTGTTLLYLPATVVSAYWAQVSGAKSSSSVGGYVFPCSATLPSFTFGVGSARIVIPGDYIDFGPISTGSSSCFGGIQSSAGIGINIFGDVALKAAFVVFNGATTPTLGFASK

Row | SMILES | solubility [1] [µM] | inhibition [2] [%]
1 | N=C(N)SCc1ccc(Cl)cc1 | > 1500 | 84
2 | O=C(CN1CCCCC1)Nc1ccc2c(c1)OCO2 | > 1500 | 49
3 | OC(COCc1ccccc1F)CN1CCCC1 (configuration not stated) | > 1500 | 87
4 | O=C(Cc1ccccc1)Nn1cnc2ccccc21 | > 1500 | 51
5 | NC1=NCc2ccccc21 | > 1500 | 89
6 | CNCc1ccc(Oc2cccnc2)o1 | > 1500 | 66
7 | O=C(Cc1cn2ccccc2n1)Nc1ccccc1 | > 1500 | 84
8 | N=C(N)c1ccc(C(F)(F)F)cc1 | > 1500 | 45
9 | CCN(CC)c1ccc(C(=O)NN)cc1 | > 1500 | 89
10 | c1cc(CNc2ccc3c(c2)OCCO3)ccn1 | > 1500 | 50
11 | N=C(N)SCc1ccccc1Cl | > 1500 | 93
